# Experiments:
# amylin receptors = target: T1, amylin receptors (Rattus norvegicus, UniProt P32214); type: binding
# T1 construct: nuclueus accumbens membranes prepared from rat brain; from tissue; host or cells: rat basal forebrain / nucleus accumbens membranes (male Sprague-Dawley rats)
# T1 sequence (P32214 25-516): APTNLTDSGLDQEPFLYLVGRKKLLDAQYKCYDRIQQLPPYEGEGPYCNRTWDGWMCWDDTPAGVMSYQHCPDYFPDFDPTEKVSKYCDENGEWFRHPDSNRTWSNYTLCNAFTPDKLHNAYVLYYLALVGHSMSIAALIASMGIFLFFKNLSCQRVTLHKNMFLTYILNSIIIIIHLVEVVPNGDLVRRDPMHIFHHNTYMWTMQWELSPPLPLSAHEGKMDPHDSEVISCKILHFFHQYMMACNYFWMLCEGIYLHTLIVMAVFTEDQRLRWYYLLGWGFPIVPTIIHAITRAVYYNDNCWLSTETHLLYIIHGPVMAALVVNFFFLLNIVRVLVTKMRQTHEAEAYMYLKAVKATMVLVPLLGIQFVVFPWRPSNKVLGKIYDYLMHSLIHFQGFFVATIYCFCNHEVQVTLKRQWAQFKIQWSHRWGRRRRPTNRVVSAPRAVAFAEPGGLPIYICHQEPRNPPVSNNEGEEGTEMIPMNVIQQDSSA
# T1 sequence (Q9JJ74 27-148 partner): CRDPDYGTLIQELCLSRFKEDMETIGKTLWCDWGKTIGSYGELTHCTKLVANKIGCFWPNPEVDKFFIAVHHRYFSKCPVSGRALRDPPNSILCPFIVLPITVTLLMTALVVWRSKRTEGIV
# CGRP receptors = target: T2, CGRP receptors (Homo sapiens, UniProt O60894+Q16602); type: binding
# T2 construct: SK-N-MC and L6 cells expressing endogenous CGRP receptors; endogenous in cells; host or cells: SK-N-MC cells (membranes)
# T2 sequence (Q16602 23-461): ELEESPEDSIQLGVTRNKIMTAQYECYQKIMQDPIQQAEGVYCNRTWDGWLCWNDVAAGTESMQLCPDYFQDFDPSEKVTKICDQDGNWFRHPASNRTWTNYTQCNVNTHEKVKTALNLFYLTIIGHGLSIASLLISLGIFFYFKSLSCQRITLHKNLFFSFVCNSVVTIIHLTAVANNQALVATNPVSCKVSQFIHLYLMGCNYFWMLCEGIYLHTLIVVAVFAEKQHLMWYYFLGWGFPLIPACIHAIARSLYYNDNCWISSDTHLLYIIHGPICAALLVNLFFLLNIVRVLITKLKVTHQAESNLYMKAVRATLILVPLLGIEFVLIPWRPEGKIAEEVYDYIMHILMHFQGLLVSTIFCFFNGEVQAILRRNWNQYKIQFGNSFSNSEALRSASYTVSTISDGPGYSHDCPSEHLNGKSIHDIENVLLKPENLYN
# T2 sequence (O60894 27-148 partner): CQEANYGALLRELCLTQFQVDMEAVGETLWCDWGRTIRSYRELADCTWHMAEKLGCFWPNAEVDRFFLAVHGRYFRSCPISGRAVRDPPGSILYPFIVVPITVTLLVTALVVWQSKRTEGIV
# calcitonin receptor = target: T3, calcitonin receptor (Rattus norvegicus, UniProt P32214); type: binding
# T3 construct: host or cells: general text: 'CHO cells or T47D cells'
# T3 sequence (P32214 25-479 isoform P32214-2 limits assumed): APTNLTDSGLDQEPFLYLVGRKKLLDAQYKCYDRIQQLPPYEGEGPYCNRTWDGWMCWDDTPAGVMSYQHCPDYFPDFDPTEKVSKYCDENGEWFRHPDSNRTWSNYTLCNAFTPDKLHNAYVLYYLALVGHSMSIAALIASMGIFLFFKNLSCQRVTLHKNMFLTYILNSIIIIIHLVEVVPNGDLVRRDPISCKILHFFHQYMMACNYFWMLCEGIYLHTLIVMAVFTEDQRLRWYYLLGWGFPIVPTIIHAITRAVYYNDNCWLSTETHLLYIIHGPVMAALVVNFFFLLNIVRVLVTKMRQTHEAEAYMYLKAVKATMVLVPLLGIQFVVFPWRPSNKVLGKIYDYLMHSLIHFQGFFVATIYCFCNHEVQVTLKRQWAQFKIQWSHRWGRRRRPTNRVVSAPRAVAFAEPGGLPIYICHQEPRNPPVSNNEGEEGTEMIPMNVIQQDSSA
# CT receptor = target: T4, CT receptor (Rattus norvegicus, UniProt P32214); assay: CT cyclase (C1A) assay; type: biochemical
# T4 construct: host or cells: general text: 'CHO cells or T47D cells'
# T4 sequence (P32214 25-479 isoform P32214-2 limits assumed): T3 sequence (P32214 25-479 isoform P32214-2 limits assumed)
# NIH/Swiss mice = conditions: for 60 min ED50: food intake, i.p.
# C57BL/6 mice (DIO) = conditions: 250 nmol/kg/day
substance,measurement,setting,value
"[Ser117, dLeu119]leptin(116-122)-Amylin(1-7)-[^11,18Arg]sCT(8-27) -Amylin(33-37) [Compound 16]",binding to amylin receptor,amylin receptors,bound
same,binding to CGRP receptor,CGRP receptors,some binding
same,binding to CT receptor,calcitonin receptor,bound
same,activation of the CT receptor (CIA assay),CT receptor,able to activate
same,anorexigenic effect in food intake assay,NIH/Swiss mice; 1 mg/kg,anorexigenic
same,anorexigenic effect compared with rat amylin,NIH/Swiss mice; rat amylin at 25 nmol/kg,superior to rat amylin
"KCNTATCATQRLANFLVRSSNNLGPVLPPTNVGSNTY-NH2 [Rat Amylin, reference compound]",60 min ED50,NIH/Swiss mice,9 nmol/kg
"HGEGAFTSDLSKQLEEEAVRLFIEFLKN-NH2 [Compound 12, reference compound]",60 min ED50,NIH/Swiss mice,13 nmol/kg
DY(SO3) MGWMDF-NH2 [CCK-8],% change (body weight) in DIO assay at day 2,C57BL/6 mice (DIO); day 2,~−2.8%
same,body weight in DIO assay at day 7,C57BL/6 mice (DIO); day 7,rebounded to the HF diet control level
leptin,activity in food intake assay,"NIH/Swiss mice; mouse, in vivo",not active

# — patent publication US8076288B2 (priority 2004, dated 2011)
